Assay results: patent US9822120B2, “Protein kinase inhibitors” (Pharmascience Inc., priority 2013, dated 2017)

Assays:
[1] = molecular target: histidine tagged recombinant human full-length Bruton Agammaglobulinemia Tyrosine Kinase (Btk) (Homo sapiens (Human), UniProt Q06187); assay: Btk kinase inhibition assay, Method A (fluorescence polarization, KinEASE FP Fluorescein Green); assay type: biochemical; details: 10 μM ATP, 250 μM substrate, 60 minutes room temperature, Ki calculated from IC50 by Cheng-Prusoff equation
Procedure: Btk Kinase Inhibition Assays
Fluorescence polarization-based kinase assays were performed in 384 well-plate format using histidine tagged recombinant human full-length Bruton Agammaglobulinemia Tyrosine Kinase (Btk) and a modified protocol of the KinEASE™ FP Fluorescein Green Assay supplied from Millipore®. Kinase reaction were performed at room temperature for 60 minutes in presence of 250 μM substrate, 10 μM ATP and variable test article concentrations. The reaction was stopped with EDTA/kinease detection reagents. Phosphorylation of the substrate peptide was detected by fluorescence polarization measured with a Tecan 500 instrument. From the dose-response curve obtained, the IC50 was calculated using Graph Pad Prisms® using a non linear fit curve. The Km for ATP on each enzyme was experimentally determined and the Ki values calculated using the Cheng-Prusoff equation (see: Cheng Y, Prusoff W. H. (1973) Relationship between the inhibition constant (K1) and the concentration of inhibitor which causes 50% inhibition (I50) of an enzymatic reaction”. Biochem. Pharmacol. 22 (23): 3099-108). ki values are reported in Tables 2a and 2b: […]

splenocytes = assay: Splenic cell proliferation assay (anti-IgM stimulated, Cell Titer-Glo); assay type: cell-based; details: Splenocyte; CD1 mouse splenocytes, 1 h pre-treatment, 2.5 ug/ml anti-IgM F(ab')2 for 72 h; read-out: EC50 (nM), Inhibition of splenic cell proliferation
Source text: Cellular Assay Splenic Cell Proliferation Assay
Proliferation of splenocytes in response to anti-IgM can be blocked by inhibition of Btk. Splenocytes were obtained from 6 week old male CD1 mice (Charles River Laboratories Inc.). Mouse spleens were manually disrupted in PBS and filtered using a 70 um cell strainer followed by ammonium chloride red blood cell lysis. Cells were washed, resuspended in Splenocyte Medium (HyClone RPMI supplemented with 10% heat-inactivated FBS, 0.5× non-essential amino acids, 10 mM HEPES, 50 uM beta mercaptoethanol) and incubated at 37° C., 5% CO2 for 2 h to remove adherent cells. Suspension cells were seeded in 96 well plates at 50,000 cells per well and incubated at 37° C., 5% CO2 for 1 h. Splenocytes were pre-treated in triplicate with 10,000 nM curves of Formula I compounds for 1 h, followed by stimulation of cell proliferation with 2.5 ug/ml anti-IgM F(ab′)2 (Jackson ImmunoResearch) for 72 h. Cell proliferation was measured by Cell Titer-Glo Luminescent Assay (Promega). EC50 values (50% proliferation in the presence of compound as compared to vehicle treated controls) were calculated from dose response compound curves using GraphPad Prism Software.

human BTK kinase (hBTK) = human BTK kinase (hBTK) (Homo sapiens (Human), UniProt Q06187); assay: Btk kinase inhibition assay, Method B (KinaseProfiler radiometric protein kinase assay, Eurofins); assay type: biochemical; details: [γ-33P-ATP], 40 minutes room temperature
Procedure: In vitro potency of selected compound was defined against human BTK kinase (hBTK) using KinaseProfiler radiometric protein kinase assays performed at Eurofins Pharma Discovery Services UK Limited.
hBTK kinase is diluted in buffer and all compounds were prepared to 50× final assay concentration in 100% DMSO. This working stock of the compound was added to the assay well as the first component in the reaction, followed by the remaining components as detailed in the assay protocol listed above. The reaction was initiated by the addition of the MgATP mix. The kinase reaction was performed at room temperature for 40 minutes in presence of 250 μM substrate, 10 mM MgAcetate, [γ-33P-ATP] (specific activity approx. 500 cpm/pmol, concentration as required) and variable test article concentrations. The ATP concentrations in the assays were with 15 μM of the apparent. The reaction was stopped by the addition of 3% phosphoric acid solution. 10 μL of the reaction is then spotted onto a P30 filtermat and washed three times for 5 minutes in 75 mM phosphoric acid and once in methanol prior to drying and scintillation counting. In addition positive control wells contain all components of the reaction, except the compound of interest; however, DMSO (at a final concentration of 2%) were included in these wells to control for solvent effects as well as blank wells contain all components of the reaction, with a reference inhibitor replacing the compound of interest. This abolishes kinase activity and establishes the base-line (0% kinase activity remaining). The potency of each compound was reported by estimating the EC50.

Chain of histidine tagged recombinant human full-length Bruton Agammaglobulinemia Tyrosine Kinase (Btk) (Q06187 whole entry): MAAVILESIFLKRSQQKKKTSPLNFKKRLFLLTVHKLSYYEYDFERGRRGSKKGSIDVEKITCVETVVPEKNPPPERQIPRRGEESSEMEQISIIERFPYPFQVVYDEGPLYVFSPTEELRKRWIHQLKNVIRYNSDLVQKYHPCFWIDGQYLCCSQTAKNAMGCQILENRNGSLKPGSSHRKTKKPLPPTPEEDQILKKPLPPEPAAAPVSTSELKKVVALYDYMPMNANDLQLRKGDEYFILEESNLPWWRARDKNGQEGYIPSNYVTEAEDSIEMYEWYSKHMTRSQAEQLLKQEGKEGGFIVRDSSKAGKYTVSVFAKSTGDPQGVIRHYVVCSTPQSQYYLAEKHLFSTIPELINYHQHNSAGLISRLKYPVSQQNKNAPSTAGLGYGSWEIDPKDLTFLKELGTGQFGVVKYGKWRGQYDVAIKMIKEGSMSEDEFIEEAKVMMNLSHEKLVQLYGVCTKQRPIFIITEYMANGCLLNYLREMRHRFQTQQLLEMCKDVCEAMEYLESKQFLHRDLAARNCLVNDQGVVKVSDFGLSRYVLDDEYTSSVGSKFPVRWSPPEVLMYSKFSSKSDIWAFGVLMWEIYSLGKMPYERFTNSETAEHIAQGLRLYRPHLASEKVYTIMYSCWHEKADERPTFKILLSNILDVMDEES
Chain of human BTK kinase (hBTK) (Q06187 whole entry): as above

| SMILES | Ki [1] [nM] | EC50 (human BTK kinase (hBTK)) [nM] | EC50 (splenocytes) [nM] |
| --- | --- | --- | --- |
| Cc1ncc(COc2cc(F)cc(Oc3ccc(-c4nc(C(C)C)n5ccnc(N)c45)cc3)c2)s1 [Compound 1] | < 100 | – | < 100 |
| Cc1ccc(COc2cc(F)cc(Oc3ccc(-c4nc(C5CCCC5)n5ccnc(N)c45)cc3)c2)cn1 [Compound 5] | < 100 | – | < 100 |
| Cc1ncc(COc2cc(F)cc(Oc3ccc(-c4nc(C5CCCC5)n5ccnc(N)c45)cc3)c2)cn1 [Compound 6] | < 100 | – | < 100 |
| Cc1ncc(COc2cc(F)cc(Oc3ccc(-c4nc(C5CCOCC5)n5ccnc(N)c45)cc3)c2)cn1 [Compound 9] | < 100 | – | < 100 |
| Cc1ncc(COc2cc(F)cc(Oc3ccc(-c4nc(C5CC5)n5ccnc(N)c45)cc3)c2)s1 [Compound 10] | < 100 | – | < 100 |
| Cc1ncc(COc2cc(F)cc(Oc3ccc(-c4nc(C5CC5)n5ccnc(N)c45)cc3)c2)cn1 [Compound 11] | < 100 | – | < 100 |
| Cc1ncc(COc2cc(F)cc(Oc3ccc(-c4nc(C5(C)COC5)n5ccnc(N)c45)cc3)c2)cn1 [Compound 12] | < 100 | – | < 100 |
| Cc1ncc(COc2cc(F)cc(Oc3ccc(-c4nc([C@H]5C[C@@](C)(O)C5)n5ccnc(N)c45)cc3)c2)cn1 [Compound 13] | < 100 | – | < 100 |
| Cc1ncc(COc2cc(F)cc(Oc3ccc(-c4nc(C5CC(O)(CO)C5)n5ccnc(N)c45)cc3)c2)s1 (stereo not shown) [Compound 14] | < 100 | – | < 100 |
| Cc1ncc(COc2cc(F)cc(Oc3ccc(-c4nc(C5(C)COC5)n5ccnc(N)c45)cc3)c2)s1 [Compound 15] | < 100 | – | < 100 |
| Cc1ncc(COc2cc(F)cc(Oc3ccc(-c4nc([C@H]5C[C@@](C)(O)C5)n5ccnc(N)c45)cc3)c2)s1 [Compound 16] | < 100 | – | < 100 |
| Cc1ncc(COc2cc(F)cc(Oc3ccc(-c4nc(C5CC(O)(CO)C5)n5ccnc(N)c45)cc3)c2)cn1 (stereo not shown) [Compound 19] | < 100 | – | < 100 |
| Cc1ncc(COc2cc(F)cc(Oc3ccc(-c4nc(C5CC(=O)C5)n5ccnc(N)c45)cc3)c2)cn1 [Compound 21] | < 100 | – | < 100 |
| Cc1ncc(COc2cc(F)cc(Oc3ccc(-c4nc([C@@H]5CCCNC5)n5ccnc(N)c45)cc3)c2)cn1 [Compound 22] | < 100 | – | < 100 |
| Cc1ncc(COc2cc(F)cc(Oc3ccc(-c4nc([C@H]5C[C@@H](O)C5)n5ccnc(N)c45)cc3)c2)cn1 [Compound 29] | – | < 100 | < 100 |
| CC(=O)N1CCC(c2nc(-c3ccc(Oc4cc(F)cc(OCc5cnc(C)nc5)c4)cc3)c3c(N)nccn23)CC1 [Compound 31] | – | < 100 | < 100 |
| Cc1ncc(COc2cc(F)cc(Oc3ccc(-c4nc([C@@H]5CCCN(C6COC6)C5)n5ccnc(N)c45)cc3)c2)cn1 [Compound 34] | – | < 100 | < 100 |

Further lines, with some results ahead:

| Ki [1] [nM] | EC50 (human BTK kinase (hBTK)) [nM] | SMILES | EC50 (splenocytes) [nM] |
| --- | --- | --- | --- |
| < 100 | – | Cc1ncc(COc2cc(F)cc(Oc3ccc(-c4nc(C(C)C)n5ccnc(N)c45)cc3)c2)cn1 [Compound 2] | < 100 |
| < 100 | – | Cc1ccc(COc2cc(F)cc(Oc3ccc(-c4nc(C(C)C)n5ccnc(N)c45)cc3)c2)cn1 [Compound 3] | < 100 |
| < 100 | – | Cc1ncc(COc2cc(F)cc(Oc3ccc(-c4nc(C5CCCC5)n5ccnc(N)c45)cc3)c2)s1 [Compound 4] | < 100 |
| < 100 | – | Cc1ncc(COc2cc(F)cc(Oc3ccc(-c4nc(C5CCOCC5)n5ccnc(N)c45)cc3)c2)s1 [Compound 7] | < 100 |
| < 100 | – | Cc1ccc(COc2cc(F)cc(Oc3ccc(-c4nc(C5CCOCC5)n5ccnc(N)c45)cc3)c2)cn1 [Compound 8] | < 100 |
| < 100 | – | Cc1ncc(COc2cc(F)cc(Oc3ccc(-c4nc(C5CC(=O)C5)n5ccnc(N)c45)cc3)c2)s1 [Compound 17] | < 100 |
| < 100 | – | Cc1ncc(COc2cc(F)cc(Oc3ccc(-c4nc(CCN5CCCC5)n5ccnc(N)c45)cc3)c2)cn1 [Compound 18] | 100 to 1000 |
| < 100 | – | Cc1ncc(COc2cc(F)cc(Oc3ccc(-c4nc([C@H]5C[C@@H](N6CCN(C)CC6)C5)n5ccnc(N)c45)cc3)c2)s1 [Compound 20] | < 100 |
| < 100 | – | CC(=O)N1CCC[C@@H](c2nc(-c3ccc(Oc4cc(F)cc(OCc5cnc(C)nc5)c4)cc3)c3c(N)nccn23)C1 [Compound 24] | < 100 |
| < 100 | – | C[C@]1(O)C[C@@H](c2nc(-c3ccc(Oc4cc(F)cc(OCc5ccccc5)c4)cc3)c3c(N)nccn32)C1 [Compound 25] | < 100 |
| < 100 | – | CC(=O)N1CC(c2nc(-c3ccc(Oc4cc(F)cc(OCc5cnc(C)nc5)c4)cc3)c3c(N)nccn23)C1 [Compound 26] | < 100 |
| < 100 | – | Cc1ncc(COc2cc(F)cc(Oc3ccc(-c4nc(C5CNC5)n5ccnc(N)c45)cc3)c2)cn1 [Compound 27] | 100 to 1000 |
| – | < 100 | Cc1ncc(COc2cc(F)cc(Oc3ccc(-c4nc(C5CCNCC5)n5ccnc(N)c45)cc3)c2)cn1 [Compound 30] | < 100 |
| – | < 100 | Cc1ncc(COc2cc(F)cc(Oc3ccc(-c4nc([C@H]5C[C@@H](N6CCOCC6)C5)n5ccnc(N)c45)cc3)c2)cn1 [Compound 33] | < 100 |
| – | < 100 | CC(C)c1nc(-c2ccc(Oc3cc(F)cc(OCc4ccc(CO)nc4)c3)cc2)c2c(N)nccn12 [Compound 35] | < 100 |
